Source: patent publication US12202835B2, “Substituted aromatic ring-linked dioxinoquinazolines and dioxinoquinolines as kinase inhibitors” (BEIJING SCITECH-MQ PHARMACEUTICALS LIMITED, priority 2018, dated 2025)

Legend:
Type in all cases: biochemical
MER kinase = MER kinase (Homo sapiens (Human), UniProt Q12866); experiment: Assay of small molecular compounds for inhibiting the activity of MER kinase (LANCE TR-FRET)
Method: The assay of small molecular compounds for inhibiting the activity of MER kinase is based on the LANCE TR-FRET technology of Perkin Elmer Inc., and the assay method is as follows: • 1. Dilution of compounds: a total of 11 concentrations were obtained using a 3-fold gradient dilution from the highest concentration of 2500 nM (the maximum final concentration of the drug used in this assay was 2500 nM, and the minimum final concentration was 0.042 nM). • 2. 2.5 μL of the gradient-diluted compounds were taken with a transfer pipette to a 384-well plate. • 3. Addition of enzyme: 5 μL of 2×MER kinase solution (with a concentration of 1 nM) was taken with a transfer pipette to the corresponding reaction well of the 384-well plate, mixed well and pre-reacted at room temperature for 5 minutes. • 4. 2.5 μL 4× ULight-labeled Ploy GT (with a concentration of 200 nM)/ATP (with a concentration of 20 μM) mixture was taken with a transfer pipette to the corresponding reaction well of the 384-well plate. • 5. Negative control: 2.5 μL/well 4× substrate/ATP mixture and 7.5 μL 1× Kinase Assay Buffer were added to the wells of the 384-well plate.
(§1) Positive control: 2.5 μL/well 4× substrate/ATP mixture, 2.5 μL/well 1× Kinase Assay Buffer containing 4% DMSO, and 5 μL/well 2×MER kinase solution were added to the 384-well plate. The final concentration of DMSO in the reaction system was 1%. • 6. The mixture was mixed well and then centrifuged and reacted at room temperature in dark for 60 min. • 7. Termination of the enzymatic reaction: 5 μL of 4× stop solution was taken with a transfer pipette to the wells of the 384-well plate, mixed and then centrifuged, and reacted at room temperature for 5 min. • 8. Development of the reaction: 5 μL of 4× detection solution was taken with a transfer pipette to the wells of the 384-well plate for color development, and the mixture was mixed and then centrifuged and reacted at room temperature for 60 min. • 9. The 384-well plate was placed into the Envision plate reader and the signal was detected using the appropriate program. • 10. Analysis and processing of the raw data:
The drug concentrations and the corresponding inhibition rates were input into GraphPad Prism5 for calculation, and the inhibition rate of the compounds were calculated as follows: inhibition rate (%)=(reading of positive well−reading of experimental well)/(reading of positive control well−reading of negative control well)×100%. Processing with GraphPad Prism5 software yielded the corresponding IC50 values (the concentration of the compound at which 50% of the highest inhibition of the enzyme is achieved).

VEGFR-2 kinase = VEGFR-2 kinase (Homo sapiens (Human), UniProt P35968); experiment: Assay of small molecular compounds for inhibiting the activity of VEGFR-2 kinase (LANCE TR-FRET); conditions: read-out: VEGFR2 IC50
Method: (§2) The assay is based on the LANCE TR-FRET technology of Perkin Elmer Inc., and the assay method is as follows: • 1. Dilution of compounds: a total of 11 concentrations were obtained using a 3-fold gradient dilution from the highest concentration of 2500 nM (the maximum final concentration of the drug used in this assay was 2500 nM, and the minimum final concentration was 0.042 nM). • 2. 2.5 μL of the gradient-diluted compounds were taken with a transfer pipette to a 384-well plate. • 3. Addition of enzyme: 5 μL of 2×VEGFR2 kinase solution (with a concentration of 0.5 nM) was taken with a transfer pipette to the corresponding reaction well of the 384-well plate, mixed well and pre-reacted at room temperature for 30 minutes. • 4. 2.5 μL 4× Ultra ULight™-JAK-1 (Tyr1023) Peptide (with a concentration of 200 nM)/ATP (with a concentration of 40 μM) mixture was taken with a transfer pipette to the corresponding reaction well of the 384-well plate. • 5. Negative control: 2.5 μL/well 4× substrate/ATP mixture and 7.5 μL 1× Kinase Assay Buffer were added to the wells of the 384-well plate. • 6. Positive control: 2.5 μL/well 4× substrate/ATP mixture, 2.5 μL/well 1× Kinase Assay Buffer containing 16% DMSO, and 5 μL/well 2×VEGFR-2 kinase solution were added to the 384-well plate. The final concentration of DMSO in the reaction system was 4%. • 7. The mixture was mixed well and then centrifuged and reacted at room temperature in dark for 60 min. • 8. Termination of the enzymatic reaction: 5 μL of 4× stop solution was taken with a transfer pipette to the wells of the 384-well plate, mixed and then centrifuged, and reacted at room temperature for 5 min. • 9. Development of the reaction: 5 μL of 4× detection solution was taken with a transfer pipette to the wells of the 384-well plate for color development, and the mixture was mixed and then centrifuged and reacted at room temperature for 60 min. • 10. The 384-well plate was placed into the Envision plate reader and the signal was detected using the appropriate program. • 11. Analysis and processing of the raw data: The drug concentrations and the corresponding inhibition rates were input into GraphPad Prism5 for calculation, and the inhibition rate of the compounds were calculated as follows: inhibition rate (%)=(reading of positive well−reading of experimental well)/(reading of positive control well−reading of negative control well)×100%. Processing with GraphPad Prism5 software yielded the corresponding IC50 values (the concentration of the compound at which 50% of the highest inhibition of the enzyme is achieved).

TRKA kinase = TRKA kinase (Homo sapiens (Human), UniProt P04629); experiment: Assay of small molecular compounds for inhibiting the activity of TRKA kinase (LANCE TR-FRET)
Method: The assay of small molecular compounds for inhibiting the activity of TRKA kinase is based on the LANCE TR-FRET technology of Perkin Elmer Inc., and the assay method is as follows: • 1. […] 2.5 μL of the gradient-diluted compounds were taken with a transfer pipette to a 384-well plate. • 3. Addition of enzyme: 5 μL of 2×TRKA kinase solution (with a concentration of 2 nM) was taken with a transfer pipette to the corresponding reaction well of the 384-well plate, mixed well and pre-reacted at room temperature for 5 minutes. • 4. 2.5 μL 4× Ultra ULight-labeled TK Peptide (with a concentration of 400 nM)/ATP (with a concentration of 40 μM) mixture was taken with a transfer pipette to the corresponding reaction well of the 384-well plate. • 5. Negative control: 2.5 μL/well 4× substrate/ATP mixture and 7.5 μL 1× Kinase Assay Buffer were added to the wells of the 384-well plate.
as §1, with “2×TRKA” for “2×MER”, “program.” for “program. • 10. Analysis and processing of the raw data:”

c-MET kinase = c-MET kinase (Homo sapiens (Human), UniProt P08581); experiment: Assay of small molecular compounds for inhibiting the activity of c-MET kinase (LANCE TR-FRET); conditions: read-out: CMET IC50
Method: as §2, with “2×c-MET” for “2×VEGFR2”, “2” for “0.5”, “5” for “30”, “400” for “200”, “2× c-MET” for “2×VEGFR-2”, “data: • 12.” for “data:”

Chain of c-MET kinase (P08581 25-1390): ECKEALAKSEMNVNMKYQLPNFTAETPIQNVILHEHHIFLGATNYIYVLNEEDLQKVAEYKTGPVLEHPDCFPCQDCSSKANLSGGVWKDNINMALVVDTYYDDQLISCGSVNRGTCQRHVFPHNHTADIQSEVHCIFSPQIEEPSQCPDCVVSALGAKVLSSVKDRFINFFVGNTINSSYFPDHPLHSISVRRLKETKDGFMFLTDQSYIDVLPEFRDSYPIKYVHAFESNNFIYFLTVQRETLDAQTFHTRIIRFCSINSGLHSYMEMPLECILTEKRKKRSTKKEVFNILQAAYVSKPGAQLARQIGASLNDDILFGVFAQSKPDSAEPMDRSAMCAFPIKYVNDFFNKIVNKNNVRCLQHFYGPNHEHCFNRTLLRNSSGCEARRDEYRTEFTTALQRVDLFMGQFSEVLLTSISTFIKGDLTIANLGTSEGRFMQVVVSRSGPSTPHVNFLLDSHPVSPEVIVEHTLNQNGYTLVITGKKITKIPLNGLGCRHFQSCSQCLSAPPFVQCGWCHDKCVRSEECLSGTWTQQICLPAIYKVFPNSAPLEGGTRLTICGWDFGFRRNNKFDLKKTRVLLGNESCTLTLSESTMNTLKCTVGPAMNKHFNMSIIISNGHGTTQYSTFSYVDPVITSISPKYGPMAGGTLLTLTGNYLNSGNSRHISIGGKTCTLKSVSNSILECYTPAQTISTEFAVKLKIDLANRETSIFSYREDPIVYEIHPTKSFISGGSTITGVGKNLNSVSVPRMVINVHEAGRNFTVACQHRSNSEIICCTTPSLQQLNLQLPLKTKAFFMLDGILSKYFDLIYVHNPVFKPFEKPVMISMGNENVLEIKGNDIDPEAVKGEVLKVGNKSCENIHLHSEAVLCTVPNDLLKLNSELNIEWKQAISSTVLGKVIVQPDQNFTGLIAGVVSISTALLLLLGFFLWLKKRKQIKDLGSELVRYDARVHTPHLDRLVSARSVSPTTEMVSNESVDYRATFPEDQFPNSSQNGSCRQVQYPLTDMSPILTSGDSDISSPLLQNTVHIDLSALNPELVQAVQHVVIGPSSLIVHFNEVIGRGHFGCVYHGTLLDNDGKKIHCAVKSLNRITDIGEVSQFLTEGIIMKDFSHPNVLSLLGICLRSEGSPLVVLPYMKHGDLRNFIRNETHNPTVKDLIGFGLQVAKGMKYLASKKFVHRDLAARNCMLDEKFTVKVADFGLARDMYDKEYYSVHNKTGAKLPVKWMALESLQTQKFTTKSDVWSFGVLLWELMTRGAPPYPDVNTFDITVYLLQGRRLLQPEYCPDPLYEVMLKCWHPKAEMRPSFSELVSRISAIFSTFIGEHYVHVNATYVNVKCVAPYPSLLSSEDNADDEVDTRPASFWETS
Chain of TRKA kinase (P04629 33-796): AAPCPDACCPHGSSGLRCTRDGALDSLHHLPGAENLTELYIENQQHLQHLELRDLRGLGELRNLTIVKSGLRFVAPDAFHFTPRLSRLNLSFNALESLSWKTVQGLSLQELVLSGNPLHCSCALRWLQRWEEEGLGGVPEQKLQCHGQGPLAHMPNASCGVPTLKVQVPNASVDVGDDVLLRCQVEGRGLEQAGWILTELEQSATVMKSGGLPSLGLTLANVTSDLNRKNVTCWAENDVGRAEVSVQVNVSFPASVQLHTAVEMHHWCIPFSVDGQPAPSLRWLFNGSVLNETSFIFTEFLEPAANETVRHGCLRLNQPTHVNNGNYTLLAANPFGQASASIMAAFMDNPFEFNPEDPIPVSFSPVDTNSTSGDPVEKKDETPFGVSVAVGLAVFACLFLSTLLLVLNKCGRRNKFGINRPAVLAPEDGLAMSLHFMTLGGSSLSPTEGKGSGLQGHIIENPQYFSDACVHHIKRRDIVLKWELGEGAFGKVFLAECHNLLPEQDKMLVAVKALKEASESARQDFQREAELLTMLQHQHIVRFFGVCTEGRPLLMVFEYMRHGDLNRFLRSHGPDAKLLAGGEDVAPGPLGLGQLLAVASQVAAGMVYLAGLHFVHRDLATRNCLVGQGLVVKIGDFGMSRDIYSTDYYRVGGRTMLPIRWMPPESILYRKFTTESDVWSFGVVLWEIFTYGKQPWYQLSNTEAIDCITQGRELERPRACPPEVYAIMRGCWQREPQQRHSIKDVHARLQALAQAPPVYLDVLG
Chain of MER kinase (Q12866 21-999): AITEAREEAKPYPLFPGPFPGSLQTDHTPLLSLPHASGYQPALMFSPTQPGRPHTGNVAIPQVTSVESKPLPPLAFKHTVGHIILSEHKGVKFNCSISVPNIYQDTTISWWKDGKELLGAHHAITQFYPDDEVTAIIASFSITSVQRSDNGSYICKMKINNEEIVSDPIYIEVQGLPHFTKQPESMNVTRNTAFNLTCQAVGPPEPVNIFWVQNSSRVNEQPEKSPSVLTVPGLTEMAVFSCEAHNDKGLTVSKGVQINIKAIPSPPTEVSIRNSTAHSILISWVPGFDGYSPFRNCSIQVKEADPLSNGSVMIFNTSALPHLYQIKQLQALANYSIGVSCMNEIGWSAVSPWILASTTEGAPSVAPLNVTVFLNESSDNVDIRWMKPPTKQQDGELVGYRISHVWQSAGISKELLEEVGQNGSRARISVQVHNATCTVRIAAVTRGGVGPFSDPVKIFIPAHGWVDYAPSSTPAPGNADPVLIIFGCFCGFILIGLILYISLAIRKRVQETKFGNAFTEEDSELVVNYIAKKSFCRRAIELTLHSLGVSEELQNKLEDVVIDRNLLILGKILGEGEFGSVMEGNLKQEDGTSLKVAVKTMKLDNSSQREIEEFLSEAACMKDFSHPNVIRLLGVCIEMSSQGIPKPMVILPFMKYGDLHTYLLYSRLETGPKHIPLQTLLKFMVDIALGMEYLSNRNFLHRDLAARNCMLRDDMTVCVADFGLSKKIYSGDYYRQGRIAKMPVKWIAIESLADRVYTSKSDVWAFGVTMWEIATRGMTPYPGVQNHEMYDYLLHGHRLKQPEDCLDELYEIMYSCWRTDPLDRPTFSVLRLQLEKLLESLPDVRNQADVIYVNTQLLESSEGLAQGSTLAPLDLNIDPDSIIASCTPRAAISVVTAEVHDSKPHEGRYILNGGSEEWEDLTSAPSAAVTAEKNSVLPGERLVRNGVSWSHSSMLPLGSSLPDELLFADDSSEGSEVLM
Chain of VEGFR-2 kinase (P35968 20-1356): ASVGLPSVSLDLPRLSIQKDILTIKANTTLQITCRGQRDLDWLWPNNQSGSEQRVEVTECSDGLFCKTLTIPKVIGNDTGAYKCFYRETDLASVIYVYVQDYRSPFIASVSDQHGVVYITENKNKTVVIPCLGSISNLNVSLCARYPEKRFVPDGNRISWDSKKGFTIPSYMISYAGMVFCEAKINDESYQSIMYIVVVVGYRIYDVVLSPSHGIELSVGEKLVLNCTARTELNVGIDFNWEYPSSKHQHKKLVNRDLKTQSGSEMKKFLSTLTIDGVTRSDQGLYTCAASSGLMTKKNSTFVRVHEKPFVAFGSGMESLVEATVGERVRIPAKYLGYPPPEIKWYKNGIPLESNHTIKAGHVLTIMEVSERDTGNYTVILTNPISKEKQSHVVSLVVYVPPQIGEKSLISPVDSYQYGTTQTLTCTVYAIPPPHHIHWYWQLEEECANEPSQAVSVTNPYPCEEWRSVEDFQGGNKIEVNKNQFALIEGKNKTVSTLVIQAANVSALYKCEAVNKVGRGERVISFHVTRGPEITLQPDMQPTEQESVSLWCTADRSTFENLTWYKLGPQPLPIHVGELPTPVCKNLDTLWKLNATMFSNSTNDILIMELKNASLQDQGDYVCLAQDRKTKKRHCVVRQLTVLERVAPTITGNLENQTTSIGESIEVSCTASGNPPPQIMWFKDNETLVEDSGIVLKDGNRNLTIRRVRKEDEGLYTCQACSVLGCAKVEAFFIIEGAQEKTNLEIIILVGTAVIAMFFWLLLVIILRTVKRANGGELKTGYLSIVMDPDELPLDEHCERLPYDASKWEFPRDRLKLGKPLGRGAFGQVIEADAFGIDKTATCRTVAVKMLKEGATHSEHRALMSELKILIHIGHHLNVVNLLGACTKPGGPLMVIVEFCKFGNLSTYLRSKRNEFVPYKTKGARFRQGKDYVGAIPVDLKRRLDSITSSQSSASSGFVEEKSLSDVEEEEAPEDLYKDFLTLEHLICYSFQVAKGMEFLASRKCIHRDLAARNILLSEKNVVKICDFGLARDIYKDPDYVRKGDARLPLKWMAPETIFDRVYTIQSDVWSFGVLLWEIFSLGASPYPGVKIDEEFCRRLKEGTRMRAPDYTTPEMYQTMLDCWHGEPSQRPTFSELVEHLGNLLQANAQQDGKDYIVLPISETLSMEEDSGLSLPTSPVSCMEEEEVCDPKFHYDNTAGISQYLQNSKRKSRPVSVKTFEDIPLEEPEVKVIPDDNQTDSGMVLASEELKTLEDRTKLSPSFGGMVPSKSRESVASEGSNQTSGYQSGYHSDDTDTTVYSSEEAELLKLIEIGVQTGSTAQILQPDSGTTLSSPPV

IC50 (MER kinase) [µM] | IC50 (VEGFR-2 kinase) [µM] | IC50 (TRKA kinase) [µM] | IC50 (c-MET kinase) [µM] | Compound
0.05 to 0.5 | 0.5 to 5 |  |  | COc1cc2nccc(Oc3ccc(NC(=O)c4cn(CC(=O)OC(C)(C)C)c(=O)n(-c5ccc(F)cc5)c4=O)cc3F)c2c2c1OCCO2 [Example 103, tert-butyl 2-(5-((3-fluoro-4-((5-methoxy-2,3-dihydro-[1,4]dioxino[2,3-f]quinolin-10-yl)oxy)phenyl)carbamoyl)-3-(4-fluorophenyl)-2,4-dioxo-3,4-dihydropyrimidin-1(2H)-yl)acetate]
 | > 5 | > 5 | ≤ 0.05 | CCn1cc(C(=O)Nc2ccc(Oc3ccnc4cc(OC5CC5)c5c(c34)OCCO5)cc2)c(=O)n(-c2ccc(F)cc2)c1=O [Example 152, N-(4-((5-cyclopropyloxy-2,3-dihydro-[1,4]dioxino[2,3-f]quinolin-10-yl)oxy)phenyl)-3-(4-fluorophenyl)-1-ethyl-2,4-dioxo-1,2,3,4-tetrahydropyrimidine-5-carboxamide]
 | 0.5 to 5 | 0.5 to 5 | ≤ 0.05 | Cn1cc(C(=O)Nc2ccc(Oc3ccnc4cc(OC5CC5)c5c(c34)OCCO5)cc2)c(=O)n(-c2ccc(F)cc2)c1=O [Example 151, N-(4-((5-cyclopropyloxy-2,3-dihydro-[1,4]dioxino[2,3-f]quinolin-10-yl)oxy)phenyl)-3-(4-fluorophenyl)-1-methyl-2,4-dioxo-1,2,3,4-tetrahydropyrimidine-5-carboxamide]
0.05 to 0.5 |  | 0.5 to 5 | 0.05 to 0.5 | COc1cc2nccc(Oc3ccc(NC(=O)c4cn(C(C)C)c(=O)n(-c5ccc(Cl)cc5)c4=O)cc3F)c2c2c1OCCO2 [Example 108, N-(3-fluoro-4-((5-methoxy-2,3-dihydro-[1,4]dioxino[2,3-f]quinolin-10-yl)oxy)phenyl)-3-(4-chlorophenyl)-1-isopropyl-2,4-dioxo-1,2,3,4-tetrahydropyrimidine-5-carboxamide]
≤ 0.05 |  | 0.5 to 5 | ≤ 0.05 | COc1cc2nccc(Oc3ccc(NC(=O)c4cn(C(C)C)c(=O)n(-c5ccccc5F)c4=O)cc3F)c2c2c1OCCO2 [Example 110, N-(3-fluoro-4-((5-methoxy-2,3-dihydro-[1,4]dioxino[2,3-f]quinolin-10-yl)oxy)phenyl)-3-(2-fluorophenyl)-1-isopropyl-2,4-dioxo-1,2,3,4-tetrahydropyrimidine-5-carboxamide]
≤ 0.05 |  | 0.5 to 5 | 0.05 to 0.5 | COc1cc2nccc(Oc3ccc(NC(=O)c4cn(C(C)C)c(=O)n(-c5ccc(C)cc5)c4=O)cc3F)c2c2c1OCCO2 [Example 107, N-(3-fluoro-4-((5-methoxy-2,3-dihydro-[1,4]dioxino[2,3-f]quinolin-10-yl)oxy)phenyl)-3-(4-methylphenyl)-1-isopropyl-2,4-dioxo-1,2,3,4-tetrahydropyrimidine-5-carboxamide]
≤ 0.05 |  | 0.05 to 0.5 | ≤ 0.05 | COc1cc2nccc(Oc3ccc(NC(=O)c4cn(C(C)C)c(=O)n(-c5ccc(F)cc5)c4=O)cc3F)c2c2c1OCCO2 [Example 14, N-(3-fluoro-4-((5-methoxy-2,3-dihydro-[1,4]dioxino[2,3-f]quinolin-10-yl)oxy)phenyl)-3-(4-fluorophenyl)-1-isopropyl-2,4-dioxo-1,2,3,4-tetrahydropyrimidine-5-carboxamide]
0.5 to 5 |  | 0.05 to 0.5 | 0.05 to 0.5 | COc1cc2nccc(Oc3ccc(NC(=O)c4ccn(-c5ccc(F)cc5C)n4)cc3F)c2c2c1OCCO2 [Example 23, 1-(4-fluoro-2-methylphenyl)-N-(3-fluoro-4-((5-methoxy-2,3-dihydro-[1,4]dioxino[2,3-f]quinolin-10-yl)oxy)phenyl)-1H-pyrazole-3-carboxamide]
